Experimental data published in ChEMBL document CHEMBL4706695, “Small molecule approaches to treat autoimmune and inflammatory diseases (Part I): Kinase inhibitors” (Bioorg Med Chem Lett, 2021).

Biological target: Tyrosine-protein kinase BTK (Homo sapiens, UniProt Q06187)
Assay: Inhibition of BTK (unknown origin) One-hour enzymatic assay without pre-incubation

Tyrosine-protein kinase BTK, sequence (Q06187 whole entry): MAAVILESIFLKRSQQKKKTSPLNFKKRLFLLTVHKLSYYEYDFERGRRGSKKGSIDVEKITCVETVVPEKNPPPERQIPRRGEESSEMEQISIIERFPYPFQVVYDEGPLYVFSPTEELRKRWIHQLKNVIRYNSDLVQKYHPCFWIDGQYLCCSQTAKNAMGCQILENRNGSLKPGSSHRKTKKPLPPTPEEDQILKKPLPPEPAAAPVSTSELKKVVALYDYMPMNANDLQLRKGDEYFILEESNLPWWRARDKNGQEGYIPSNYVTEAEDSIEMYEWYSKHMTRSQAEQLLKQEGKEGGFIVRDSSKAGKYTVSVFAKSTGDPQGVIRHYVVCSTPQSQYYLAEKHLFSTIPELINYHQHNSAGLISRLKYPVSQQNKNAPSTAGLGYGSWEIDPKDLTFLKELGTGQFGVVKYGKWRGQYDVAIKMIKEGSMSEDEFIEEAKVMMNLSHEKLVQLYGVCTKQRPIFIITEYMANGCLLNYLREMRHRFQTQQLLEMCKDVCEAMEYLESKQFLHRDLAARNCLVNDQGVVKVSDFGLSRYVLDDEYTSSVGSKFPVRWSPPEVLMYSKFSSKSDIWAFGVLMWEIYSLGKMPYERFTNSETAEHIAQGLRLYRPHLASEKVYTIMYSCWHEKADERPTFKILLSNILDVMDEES

N#CN1CCC[C@@H](n2nc(-c3ccc(Oc4ccc(F)cc4F)cc3)c(C(N)=O)c2N)C1
IC50: 0.5 nM

C=CC(=O)N1CCC[C@@H](c2ccc(C(N)=O)c3[nH]ccc23)C1 [ELSUBRUTINIB]
IC50: 33 nM
